For data set [1] the following is noted: mouse.
The next data set in a line: in vivo. Particulars: female, Balb/cJ, mouse, ip.
For data set [2], the system named is trypsin. In words: in vitro. Particulars: isolated enzyme trypsin.
Procedure: (§4) Cell permeability of peptide drugs was determined by fluorescence measurement of TAMRA-labeled peptides in 96-well plates and ClarioStar Plus plate reader using BMG ClarioStar MARS software (version 4.20). […] Percent uptake was calculated as background-subtracted fluorescence absorbed by cells/fluorescence of peptide in media-only wells, then made relative to TAMRA-Alkyne. Three biological replicates (n = 3) were performed per cell line per treatment group. Peptide proteolysis was measured using immobilized Trypsin-agarose resin (Thermo Fisher) and quantification by LC-MS. […] In vivo pharmacokinetics were performed by the UACC Analytical Chemistry Shared Resource. […] The mice were fed NIH-31 irradiated pellets (Tekland Premier, Madison, Wisconsin), and reverse osmosis water was freely available. […] The average plasma concentration versus time data were analyzed using PKSolver (version 2.0) by a noncompartmental approach.
Another data set in a line: in vitro. Particulars: plasma.
The nature of data set [3]: Liver microsomal stability. Particulars: human liver microsomes.
In data set [4] the target is 97 kinases (kinase named in endpoint) (Homo sapiens, UniProt P16234). In words: Eurofins KINOMEscan profiling, 97 kinases. Particulars: read-out: % Ctrl, PDGFRA.
97 kinases (kinase named in endpoint) (Homo sapiens, UniProt P16234), sequence (P16234 24-1089): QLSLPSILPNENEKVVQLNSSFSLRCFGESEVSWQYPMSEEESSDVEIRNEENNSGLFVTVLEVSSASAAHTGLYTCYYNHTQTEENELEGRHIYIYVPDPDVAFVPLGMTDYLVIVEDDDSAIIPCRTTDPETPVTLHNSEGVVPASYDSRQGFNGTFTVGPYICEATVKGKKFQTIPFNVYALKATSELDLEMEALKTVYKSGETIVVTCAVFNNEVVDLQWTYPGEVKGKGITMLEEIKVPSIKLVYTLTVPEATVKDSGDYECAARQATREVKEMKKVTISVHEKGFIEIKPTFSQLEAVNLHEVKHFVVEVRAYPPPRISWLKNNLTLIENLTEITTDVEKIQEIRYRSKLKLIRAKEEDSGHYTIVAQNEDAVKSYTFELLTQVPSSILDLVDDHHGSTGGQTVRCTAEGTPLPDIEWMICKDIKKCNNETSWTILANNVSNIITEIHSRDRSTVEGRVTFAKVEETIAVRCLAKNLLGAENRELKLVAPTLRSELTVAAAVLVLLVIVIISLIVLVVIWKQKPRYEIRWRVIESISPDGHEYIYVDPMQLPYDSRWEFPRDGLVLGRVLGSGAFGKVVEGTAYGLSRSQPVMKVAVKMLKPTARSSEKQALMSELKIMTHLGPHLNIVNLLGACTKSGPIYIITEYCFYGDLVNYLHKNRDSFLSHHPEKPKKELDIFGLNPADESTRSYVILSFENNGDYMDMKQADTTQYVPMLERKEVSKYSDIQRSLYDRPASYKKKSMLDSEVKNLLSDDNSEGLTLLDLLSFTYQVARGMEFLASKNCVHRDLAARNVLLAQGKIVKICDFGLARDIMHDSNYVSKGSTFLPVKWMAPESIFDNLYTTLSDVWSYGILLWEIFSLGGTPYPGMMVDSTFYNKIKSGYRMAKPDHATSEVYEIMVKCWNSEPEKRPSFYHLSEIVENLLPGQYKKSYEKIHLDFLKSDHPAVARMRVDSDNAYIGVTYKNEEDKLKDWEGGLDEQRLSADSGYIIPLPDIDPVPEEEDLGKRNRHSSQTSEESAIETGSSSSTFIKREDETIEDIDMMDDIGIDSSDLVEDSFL
Procedure: (§5) This experiment was performed by Eurofins KINOMEscan™ Profiling Service. […] The lysates were centrifuged and filtered, the remaining kinases were produced in HEK-293 cells and subsequently tagged with DNA for qPCR detection. […] The liganded beads were blocked with excess biotin and washed with blocking buffer (SeaBlock (Pierce), 1% BSA, 0.05% Tween-20, 1 mM DTT). […] Test compounds were prepared as 100x stocks in 100% DMSO and directly diluted into the assay. All reactions were performed in polypropylene 384-well plates in a final volume of 0.02 ml. […] The kinase concentration in the eluates was measured by qPCR.
(§6) (negative control signal - positive control signal)] x 100. ( b) AccompanyingSelectivity Scores or S -scores
(§7) which are quantitative measures of compound selectivity. They are calculated by dividing the number of
(§8) kinases that compounds bind to by the total number of distinct kinases tested, excluding mutant variants.
(§9) S(35)= ( num ber of non -mutant kinases with %Ctrl <35)/(number of non- mutant kinases tested)], S(10)=
(§10) non- mutant kinases with %Ctrl <1)/(number of non- mutant kinases tested)].
The nature of data set [5]: In vivo pharmacokinetics, single i.p. administration. Particulars: Cmax vs IC50 0.8 µM.
Procedure: as §4
Data set [6] concerns SK-MEL-147 cells. In words: Cellular uptake of TAMRA-labeled peptides. Particulars: TAMRA-tagged, cell line not given. The format is in vitro ADME, human.
Data set [7] concerns FAK/paxillin focal adhesions in SK-MEL-147 cells. In words: cells. Particulars: 48 h. In kind it is cell-based, human. As to the method: SK-MEL-147 cells were collected and seeded into the inner 60 wells of 96-well, black-walled plates (Agilent, 204626-100) at 1000 cells per well in 100 uL of complete DMEM overnight in a 37 °C incubator with 5% CO2. The next day, the serum-containing media was removed from each well and cells were washed with PBS before treating the cells in serum-free DMEM and 0.5% DMSO for 48 h. After treatment, cells were pre-fixed with 4% paraformaldehyde diluted in 1x PBS being added directly to the culture medium for 2 min. Pre-fixation media was then removed, and 4% paraformaldehyde diluted in 1X PBS was added to each well for 3 min at room temperature. Fixative was then removed and neutralized twice with 100 mM Tris Buffered Saline in MilliQ water and then washed once with 0.1% Tween-20 in PBS. Cells were permeabilized with 0.5% Triton-X 100 in PBS for 5 min at room temperature, then the permeabilization buffer was removed, and cells were washed twice with 0.1% Tween-20 in PBS. Cells were then blocked with 10% Goat Serum in PBS for 1 h at room temperature. […] Antibody stain was then removed, and cells were washed twice with 0.1% Tween-20 in PBS. […] Cells were then washed twice with 0.1% Tween-20 in PBS and DAPI stain (Sigma-Aldrich, D9542-5MG, 1 mg/mL) diluted 1:40,000 in PBS in the dark for 5 min at room temperature. DAPI stain was then removed, and cells were washed twice with 0.1% Tween-20 in PBS, then twice with PBS for 5 min per wash on an orbital shaker. Plates were then imaged on the BioTek Cytation C10 Confocal Imaging Reader. Three fields of view were taken per well per run and analyzed in the accompanying Agilent BioTek Gen5 Software (version 3.16). The following software parameters were used to quantify FAK-containing, paxillin-containing, and FAK/paxillin-containing focal adhesions: area (0.25–33); circularity (<0.602); FAK signal to noise ratio (>2.55), FAK integrated density (SKMEL147 > 4200; WM88 >9400), paxillin signal to noise ratio (>4.5), paxillin integrated density (>8000), presence of F-actin (phalloidin) staining; and limited proximity to DAPI staining (integrated density <4000).

Data set [8] deals with SK-MEL-147 cells. In words: LDH release assay. In kind it is cell-based, human. Particulars: 100 μM to 200 nM, 45 min, n = 3. As to the method: (§1) Non-specific membrane disruption was assessed quantitatively by measuring the lactate dehydrogenase (LDH) activity in the medium using the cytoscan-LDH cytotoxicity assay kit (G-Biosciences Inc., St Louis, Mo, USA). SK-MEL-147 and WM88 human melanoma cells were plated in 96-well white-walled plates at 5k cells/well in 90 uL of serum complete DMEM and returned to a 37 °C incubator with 5% CO2 overnight. The cells were then treated in triplicate with 2012, 2020 (negative control), and Gambogic Acid (positive control) at titrating concentrations ranging from 100 μM to 200 nM and allowed to incubate for 45 min in a 37 °C incubator with 5% CO2. About 50 µl of supernatant was transferred from each well to a new flat-bottom 96-well white-walled plate and mixed with 50 µl of recombinant substrate mixture. This reaction was allowed to occur at room temperature for 30 min protected from light. Then, 50 µl of stop solution was added to terminate the reaction. […] Results were reported as 490 nm values […], averaged, three biological replicates were repeated per cell line, and graphs were generated using GraphPad Prism (version 10.3.1), reporting mean LDH activity ± SD.
(§2) LDH release assay preformed in human melanoma
(§3) Acid (pos. control) at titrating concentrations ranging from 100 μ M to 200 nM for 45 minutes. […]
(LDH leaks from cells whose membrane has failed.)

The subject of a further data set is WM88 cells. In words: LDH release assay. Particulars: 100 μM to 200 nM, 45 min, n = 3. The format is cell-based, human. On the procedure: as §1, §2, §3
The subject of data set [9] is trypsin. In words: Trypsin proteolytic resistance assay. Particulars: immobilized trypsin-agarose resin.
Procedure: as §4
The test system of the next data set is kinases. Particulars: 1 µM, ref Cromm et al, 2018; cited from earlier work. As to the method: page 11: Comment 5: Reviewer Comment: “Line 299: “indicating potential [defactinib] toxicity beyond the 2.5 μM”. […] The high non- selectivity of defactinib at low micromolar doses indicates the potential of off-target effects and toxicity beyond 2.5 µM.
The test system of data set [10] is 97 kinases (kinase named in endpoint). Nature of the data set: Eurofins KINOMEscan profiling, 97 kinases. Particulars: 1 µM.
Procedure: as §5, §6, §7, §8, §9, §10

SMILES strings stand for the structures. Read-outs that look alike come from different tables or passages of the source. Bridge positions count the residues as written; N and C are the ends. Square brackets hold non-standard residues; d marks the D form. Peptide text beside a SMILES is read from it. * marks the point of attachment. Myristoyl = CCCCCCCCCCCCCC(=O)*; R8 = C=CCCCCCC[C@@](C)(N)C(=O)O; S5 = C=CCCC[C@](C)(N)C(=O)O Some results are limits rather than exact numbers.

Broadly, the Cmax is the maximum level reached in the sampled fluid or tissue. What is called half-life is the time needed for the level to fall by half in the phase considered. As usually defined, the fraction unbound is free concentration divided by total concentration. As to `CCCCCCCCCCCCCC(=O)N[C@@H](CC(N)=O)C(=O)N[C@@H](CC(C)C)C(=O)N[C@]1(C)CCCCCCC=CCCC[C@@](C)(C(=O)N[C@@H](CCC(=O)O)C(=O)N[C@@H](CC(C)C)C(=O)N[C@@H](CC(N)=O)C(N)=O)NC(=O)[C@H](CC(C)C)NC(=O)[C@H](CC(C)C)NC(=O)[C@H](CCCNC(=N)N)NC(=O)[C@H](CC(=O)O)NC(=O)[C@H](CC(C)C)NC(=O)[C@H](CCC(=O)O)NC1=O` [compound 2012], the “plasma stability t1/2” value in [1] is above 2 h. Also, in the data set “in vivo”, the Cmax is 89.4 µg/mL and the half-life was 16.5 h. In the data set “in vivo” (2012 concentration), the level at 0.5 h worked out at 11.4 µg/mL. Further, in the data set with trypsin [2], the fraction remaining at 0.25 h, 100 µM stood at 91%; the share remaining at 0.5 h, 100 µM was 108%; the share remaining at 1 h, 100 µM worked out at 102%; the fraction remaining at 2 h, 100 µM came out at 85%. Moreover, in the data set with trypsin [2], the share remaining at 3 h, 100 µM worked out at 104%; the share remaining at 4 h, 100 µM was found to be 91%; the fraction remaining at 6 h, 100 µM worked out at 93%; the fraction remaining at 8 h, 100 µM turned out to be 111%. Moreover, in the data set with trypsin [2], the fraction remaining at 24 h, 100 µM was 97% and the share remaining at 48 h, 100 µM stood at 89%. In the data set “in vitro”, this compound had a fraction unbound below 0.01. In [3] (0 min, Rep1), the “remaining in liver microsomes” value is recorded as 98. For the same compound, the “remaining in liver microsomes” value in data set [3] (0 min, Rep2) turned out to be 102. Also, the “remaining in liver microsomes” value in data set [3] (5 min, Rep1) is given as 98. In addition, the “remaining in liver microsomes” value in data set [3] (5 min, Rep2) came to 94. Also, the “remaining in liver microsomes” value in [3] (15 min, Rep1) is on record as 100. In addition, the “remaining in liver microsomes” value in data set [3] (15 min, Rep2) worked out at 98. Moreover, in data set [3] (30 min, Rep1), the “remaining in liver microsomes” value was determined as 100. The “remaining in liver microsomes” value in [3] (30 min, Rep2) was found to be 101. Besides, the “remaining in liver microsomes” value in [3] (60 min, Rep1) stood at 97. In addition, in data set [3] (60 min, Rep2), the “remaining in liver microsomes” value was 94. Further, the remaining binding at 1 µM in [4] was 100%. Moreover, the “excess of plasma concentration over focal adhesion IC50” value in data set [5] was determined as 60 fold.
By IC50 is commonly meant the concentration needed to halve the response being measured. In the case of `CCCCCCCCCCCCCC(=O)N[C@@H](CC(N)=O)C(=O)N[C@@H](CC(C)C)C(=O)N[C@]1(C)CCCCCCC=CCCC[C@@](C)(C(=O)N[C@@H](CCC(=O)O)C(=O)N[C@@H](CCC(=O)O)C(=O)N[C@@H](CC(N)=O)C(N)=O)NC(=O)[C@H](CC(C)C)NC(=O)[C@H](CC(C)C)NC(=O)[C@H](CCCNC(=N)N)NC(=O)[C@H](CC(=O)O)NC(=O)[C@H](CCC(=O)O)NC(=O)[C@H](CCC(=O)O)NC1=O` [compound 2020] (Myristoyl-NL[R8]EEDRLL[S5]EEN-NH2; staple 3-10), in the data set on SK-MEL-147 cells [6], the “cell permeability compared to TAMRA-Alkyne control” value is recorded as “approximately threefold higher”. The same compound registered an IC50 in [7] above 25 µM. Besides, the “LDH release, plasma membrane damage” value with SK-MEL-147 cells [8] is reported as “do not result in damage to plasma membrane”. Moreover, the “LDH release, plasma membrane damage” value in the data set on WM88 cells is recorded as “do not result in damage to plasma membrane”. For the same compound, in the data set with trypsin [9], the fraction remaining at 0.25 h, 100 µM was determined as 97%; the fraction remaining at 0.5 h, 100 µM was determined as 99%; the amount remaining at 1 h, 100 µM worked out at 98%; the share remaining at 2 h, 100 µM turned out to be 95%. In the data set on trypsin [9], the fraction remaining at 3 h, 100 µM stood at 90%; the share remaining at 4 h, 100 µM stood at 92%; the amount remaining at 6 h, 100 µM turned out to be 93%; the amount remaining at 8 h, 100 µM was found to be 93%. For the same compound, in the data set on trypsin [9], the share remaining at 24 h, 100 µM worked out at 91% and the fraction remaining at 48 h, 100 µM was 89%.
Consider `CNC(=O)c1ccc(Nc2ncc(C(F)(F)F)c(NCc3nccnc3N(C)S(C)(=O)=O)n2)cc1` [defactinib], for which the IC50 in [7] (Homo sapiens, SK-MEL-147, n = 3, read-out: IC50, reduction of FAK-containing focal adhesions) turned out to be 11.1 µM. Also, the IC50 in data set [7] (Homo sapiens, SK-MEL-147, n = 3, read-out: IC50, reduction of dual FAK-paxillin containing focal adhesions) was 11.2 µM. The IC50 in [7] (Homo sapiens, SK-MEL-147, n = 3, read-out: IC50, reduction of paxillin-containing focal adhesions) turned out to be 18.7 µM. In addition, the “number of kinases bound with more than 65% inhibition” value in the data set with kinases is recorded as at least 100. In data set [4], the remaining binding at 1 µM is 82%. For the same compound, in data set [10], the “additional kinases other than FAK inhibited” value stood at 44 and the “kinases inhibited >50% (interactions mapped) out of 97 tested” value stood at 45. Also, in data set [10] (90 non-mutant kinases), the “selectivity score S(1)” value was found to be 0.033, the “selectivity score S(10)” value was 0.122 and the “selectivity score S(35)” value is listed as 0.256. For the same compound, in data set [10] (%Ctrl <1, 90 non-mutant kinases), the “Number of Hits, S(1)” value stood at 3. In addition, the “Number of Hits, S(10)” value in data set [10] (%Ctrl <10, 90 non-mutant kinases) came to 11. For the same compound, in [10] (%Ctrl <35, 90 non-mutant kinases), the “Number of Hits, S(35)” value worked out at 23.

(Values after publication PMC11871066, “Structure-based discovery of hydrocarbon-stapled paxillin peptides that block FAK scaffolding in cancer” (Nature Communications, 2025).)
